Laboratory results from article PMC12635456, “In Vivo Inhibition of Dipeptidyl Peptidase 4 and Neprilysin Activity Enables Measurement of GLP-1 Secretion in Male Rats” (Journal of the Endocrine Society, 2025).
Read-outs that look alike come from different tables or passages of the source.

Assays:
[1] = cited from earlier work
Text: Glucagon-like peptide-1 (GLP-1), secreted from enteroendocrine cells in the gut, enhances glucose-stimulated insulin secretion and reduces appetite.

GLP-1 secretion = experiment: Oral glucose challenge without inhibitor pretreatment (GLP-1 by RIA and ELISAs); conditions: oral glucose 2 g/kg, no inhibitors
Method: In these experiments it was possible to collect relatively large blood samples (∼500 µL), allowing measurements with a single site RIA directed at the C-terminus of the molecule. The samples were collected at time point 0, 15, 30, and 60 minutes after glucose challenge and treated as already described.
Net area under the curve (nAUC) was calculated using the trapezoid rule; baseline was set to the first data point and peaks above and below the baseline were considered. P < .05 was considered significant. Data are shown as mean ± SEM.

SMILES | Half-life in the circulation ([1]; humans) | Half-life in the circulation ([1]; mice) | Half-life in the circulation ([1]; rats) | Increase in GLP-1 concentration 15 minutes following glucose, C-terminal RIA (GLP-1 secretion) [pmol/L] | Increase in GLP-1 concentration 15 minutes following glucose, Mercodia total ELISA (GLP-1 secretion) | Total GLP-1 plasma concentration 15 minutes after glucose, RIA (GLP-1 secretion; in-house C-terminal RIA 89390, mean ± SEM, n = 5-6, P < .02 vs baseline) [pmol/L] | Intact GLP-1 plasma concentration 15 minutes after glucose, Alpco ELISA (GLP-1 secretion; mean ± SEM, n = 5-6, P < .008 vs baseline) [pmol/L] | Total GLP-1 plasma concentration 15 minutes after glucose, Mercodia ELISA (GLP-1 secretion; mean ± SEM, n = 5-6, P < .02 vs baseline) [pmol/L]
CC[C@H](C)[C@H](NC(=O)[C@H](Cc1ccccc1)NC(=O)[C@H](CCC(=O)O)NC(=O)[C@H](CCCCN)NC(=O)[C@H](C)NC(=O)[C@H](C)NC(=O)[C@H](CCC(N)=O)NC(=O)CNC(=O)[C@H](CCC(=O)O)NC(=O)[C@H](CC(C)C)NC(=O)[C@H](Cc1ccc(O)cc1)NC(=O)[C@H](CO)NC(=O)[C@H](CO)NC(=O)[C@@H](NC(=O)[C@H](CC(=O)O)NC(=O)[C@H](CO)NC(=O)[C@@H](NC(=O)[C@H](Cc1ccccc1)NC(=O)[C@@H](NC(=O)CNC(=O)[C@H](CCC(=O)O)NC(=O)[C@H](C)NC(=O)[C@@H](N)Cc1c[nH]cn1)[C@@H](C)O)[C@@H](C)O)C(C)C)C(=O)N[C@@H](C)C(=O)N[C@@H](Cc1c[nH]c2ccccc12)C(=O)N[C@@H](CC(C)C)C(=O)N[C@H](C(=O)N[C@@H](CCCCN)C(=O)NCC(=O)N[C@@H](CCCNC(=N)N)C(N)=O)C(C)C [GLP-1(7-36)NH2] | a few minutes | a few minutes | a few minutes | – | – | – | – | –
OC[C@H]1OC(O)[C@H](O)[C@@H](O)[C@@H]1O (some centres unmarked) [glucose] | – | – | – | ~15 | around 5 pmol/L | 43.1 ± 3.7 | 0.8 ± 0.07 | 10.5 ± 1.8
